Earlier results as cited in patent US20230149425A1, “PROCESS AND THERAPEUTIC COMPOSITION FOR TREATING AND PREVENTING SEVERE INJECTION SITE REACTIONS” (Brii Biosciences, Inc., priority 2021, published 2023).

Key:
[1] = oral
[2] = lactating women

C[C@@]1(O)CC[C@H]2[C@H](CC[C@@H]3[C@@H]2CC[C@]2(C)[C@@H](C(=O)Cn4cc(C#N)cn4)CC[C@@H]32)C1 [SAGE-217]
reduction of depressive symptoms in clinical trials ([1]; administration for 14 days): mixed results | adverse events versus placebo ([1]; clinical trials): more adverse events than the placebo

CC(=O)[C@H]1CC[C@H]2[C@@H]3CC[C@H]4C[C@H](O)CC[C@]4(C)[C@H]3CC[C@]12C [brexanolone, 5α-pregnane-3α-ol-20-one]
concentrations in milk and plasma [2]: low | risk to breastfed infants [2]: low risk

C[C@]12CCC(=O)C=C1CC[C@@H]1[C@@H]2C(=O)C[C@@]2(C)[C@H]1CC[C@]2(O)C(=O)CO [cortisone]
safety and pain relief of injection in lactating women: safe and efficient for pain relief
